Reference: US11058678B2 (Enanta Pharmaceuticals, Inc., priority 2018, dated 2021)
pEC50: −log10 of the molar value.

The compounds below were run on HBV (2.2.15 cells) (assay: Antiviral activity in 2.2.15 cells: reduction of viral product accumulation (qPCR of lysates, HBsAg or HBeAg ELISA)). Conditions: Hepatitis B virus, 120 h, day 5 post treatment, 50% reduction of viral product accumulation in lysates or supernatants vs no drug controls, readout (qPCR, HBsAg, HBeAg) not specified.
Assay type: cell-based, hepatitis B virus (HBV)
Description: 2.2.15 cells are passaged upon attaining confluency in DMEM/F12 media in the presence of 10% FBS, Penn/Strep, and 250 ug/mL G418. Novel compounds are 5 fold serially diluted in DMSO and added to 96 well plates containing 35,000 cells/well at a 1:200 dilution so that the final concentration of DMSO is 0.5%. On day 5, post treatment cell lysates and supernatants are harvested for analysis.
Cells are lysed using Agilent Sidestep Lysis buffer, diluted 1:100 and quantified via quantitative real time PCR. Commercially available ELISA kits are used to quantitate the viral proteins HBsAg (Alpco) or HBeAg (US Biological) by following the manufacturer's recommended protocol after diluting samples to match the linear range of their respective assays. Irrespective of readout, compound concentrations that reduce viral product accumulation in the cell lysates or supernatants by 50% relative to no drug controls (EC50) are reported; EC50 ranges are as follows: A<0.1 μM; B 0.1-1 μM; C>1 μM.

Compound | pEC50
CC1(C)Cc2c3c(cc(-c4cccs4)c2O1)-c1cc(=O)c(C(=O)O)cn1[C@H](C(C)(C)C)C3 [Example 152, (S)-5-(tert-butyl)-2,2-dimethyl-9-oxo-12-(thiophen-2-yl)-2,3,4,9-tetrahydro-5H-furo[3,2-f]pyrido[2,1-a]isoquinoline-8-carboxylic Acid] | < 6.00
COCCCOc1cc2c(cc1-c1ccoc1)-c1cc(=O)c(C(=O)O)cn1[C@H]1[C@@H]2COC1(C)C [Example 126, (3aS,12bR)-10-(furan-3-yl)-11-(3-methoxypropoxy)-3,3-dimethyl-7-oxo-3,3a,7,12b-tetrahydro-1H-furo[3,4-c]pyrido[2,1-a]isoquinoline-6-carboxylic Acid] | > 7.00
COCCCOc1cc2c(cc1-c1ccccc1)-c1cc(=O)c(C(=O)O)cn1[C@H]1[C@@H]2COC1(C)C [Example 141] | > 7.00
CC(C)[C@@H]1Cc2c(cc(-c3cccnc3)c3c2CCO3)-c2cc(=O)c(C(=O)O)cn21 [Example 105, (S)-5-isopropyl-9-oxo-12-(pyridin-3-yl)-2,3,4,9-tetrahydro-5H-furo[3,2-f]pyrido[2,1-a]isoquinoline-8-carboxylic Acid] | > 7.00
CC(C)(C)[C@@H]1Cc2c(cc(N3CCC3)c3c2CCO3)-c2cc(=O)c(C(=O)O)cn21 [Example 111, (S)-12-(azetidin-1-yl)-5-(tert-butyl)-9-oxo-2,3,4,9-tetrahydro-5H-furo[3,2-f]pyrido[2,1-a]isoquinoline-8-carboxylic Acid] | > 7.00
COCCCOc1cc2c(cc1-c1cccc(OC(F)(F)F)c1)-c1cc(=O)c(C(=O)O)cn1[C@H](C(C)(C)C)C2 [Example 57, (S)-6-(tert-butyl)-9-(3-methoxypropoxy)-2-oxo-10-(3-(trifluoromethoxy)phenyl)-6,7-dihydro-2H-pyrido[2,1-a]isoquinoline-3-carboxylic Acid] | < 6.00
CC(C)[C@@H]1Cc2c(cc(-c3cnsc3)c3c2CCO3)-c2cc(=O)c(C(=O)O)cn21 [Example 103, (S)-5-isopropyl-12-(isothiazol-4-yl)-9-oxo-2,3,4,9-tetrahydro-5H-furo[3,2-f]pyrido[2,1-a]isoquinoline-8-carboxylic Acid] | > 7.00
COCCCOc1cc2c(cc1-c1nnco1)-c1cc(=O)c(C(=O)O)cn1[C@H](C(C)(C)C)C2 [Example 36, (S)-6-(tert-butyl)-9-(3-methoxypropoxy)-10-(1,3,4-oxadiazol-2-yl)-2-oxo-6,7-dihydro-2H-pyrido[2,1-a]isoquinoline-3-carboxylic Acid] | > 7.00
CC(C)(C)[C@@H]1Cc2c(cc(-c3ccco3)c3c2CCO3)-c2cc(=O)c(C(=O)O)cn21 [Example 72, (S)-5-(tert-butyl)-12-(furan-2-yl)-9-oxo-2,3,4,9-tetrahydro-5H-furo[3,2-f]pyrido[2,1-a]isoquinoline-8-carboxylic Acid] | > 7.00
COCCCOc1cc2c(cc1-c1ccc3c(c1)OCCC3)-c1cc(=O)c(C(=O)O)cn1[C@H](C(C)(C)C)C2 [Example 39, (S)-6-(tert-butyl)-10-(chroman-7-yl)-9-(3-methoxypropoxy)-2-oxo-6,7-dihydro-2H-pyrido[2,1-a]isoquinoline-3-carboxylic Acid] | < 6.00
CC(C)(C)[C@@H]1Cc2c(cc(-c3cccc(C(F)(F)F)c3)c3c2CCO3)-c2cc(=O)c(C(=O)O)cn21 [Example 81, (S)-5-(tert-butyl)-9-oxo-12-(3-(trifluoromethyl)phenyl)-2,3,4,9-tetrahydro-5H-furo[3,2-f]pyrido[2,1-a]isoquinoline-8-carboxylic Acid] | < 6.00
COCCCOc1cc2c(cc1N1CCCC1)-c1cc(=O)c(C(=O)O)cn1[C@@H](C(C)(C)C)C2 [Example 50, (R)-6-(tert-butyl)-9-(3-methoxypropoxy)-2-oxo-10-(pyrrolidin-1-yl)-6,7-dihydro-2H-pyrido[2,1-a]isoquinoline-3-carboxylic Acid] | > 7.00
COCCCOc1cc2c(cc1-c1ccc3oncc3c1)-c1cc(=O)c(C(=O)O)cn1[C@H](C(C)(C)C)C2 [Example 47, (S)-10-(benzo[d]isoxazol-5-yl)-6-(tert-butyl)-9-(3-methoxypropoxy)-2-oxo-6,7-dihydro-2H-pyrido[2,1-a]isoquinoline-3-carboxylic Acid] | < 6.00
CC(C)(C)[C@@H]1Cc2c(cc(C3CCOC3)c3c2CCO3)-c2cc(=O)c(C(=O)O)cn21 (stereo partly drawn) [Example 130, (5S)-5-(tert-butyl)-9-oxo-12-(tetrahydrofuran-3-yl)-2,3,4,9-tetrahydro-5H-furo[3,2-f]pyrido[2,1-a]isoquinoline-8-carboxylic Acid] | > 7.00
CC(C)[C@@H]1Cc2c(cc(-n3cccn3)c3c2CCO3)-c2cc(=O)c(C(=O)O)cn21 [Example 116] | > 7.00
COCCCOc1cc2c(cc1-c1ccc(OC(F)F)cc1)-c1cc(=O)c(C(=O)O)cn1[C@H](C(C)(C)C)C2 [Example 56, (S)-6-(tert-butyl)-10-(4-(difluoromethoxy)phenyl)-9-(3-methoxypropoxy)-2-oxo-6,7-dihydro-2H-pyrido[2,1-a]isoquinoline-3-carboxylic Acid] | > 7.00
CC(C)[C@@H]1Cc2c(cc(-c3cnco3)c3c2CCO3)-c2cc(=O)c(C(=O)O)cn21 [Example 91, (S)-5-isopropyl-12-(oxazol-5-yl)-9-oxo-2,3,4,9-tetrahydro-5H-furo[3,2-f]pyrido[2,1-a]isoquinoline-8-carboxylic Acid] | > 7.00
COCCCOc1cc2c(cc1-c1ccccc1OC(F)(F)F)-c1cc(=O)c(C(=O)O)cn1[C@H](C(C)(C)C)C2 [Example 58, (S)-6-(tert-butyl)-9-(3-methoxypropoxy)-2-oxo-10-(2-(trifluoromethoxy)phenyl)-6,7-dihydro-2H-pyrido[2,1-a]isoquinoline-3-carboxylic Acid] | < 6.00
COCCCOc1cc2c(cc1C1CCCCO1)-c1cc(=O)c(C(=O)O)cn1[C@H](C(C)(C)C)C2 (stereo partly drawn) [Example 41, (6S)-6-(tert-butyl)-9-(3-methoxypropoxy)-2-oxo-10-(tetrahydro-2H-pyran-2-yl)-6,7-dihydro-2H-pyrido[2,1-a]isoquinoline-3-carboxylic Acid] | > 7.00
CC1(C)Cc2c3c(cc(-c4cnsc4)c2O1)-c1cc(=O)c(C(=O)O)cn1[C@H](C(C)(C)C)C3 [Example 145, (S)-5-(tert-butyl)-12-(isothiazol-4-yl)-2,2-dimethyl-9-oxo-2,3,4,9-tetrahydro-5H-furo[3,2-f]pyrido[2,1-a]isoquinoline-8-carboxylic Acid] | < 6.00
COCCCOc1cc2c(cc1N1CCC1)-c1cc(=O)c(C(=O)O)cn1[C@H](C(C)(C)C)C2 [Example 55, (S)-10-(azetidin-1-yl)-6-(tert-butyl)-9-(3-methoxypropoxy)-2-oxo-6,7-dihydro-2H-pyrido[2,1-a]isoquinoline-3-carboxylic Acid] | > 7.00
CC(C)[C@@H]1Cc2c(cc(-c3cnn(C)c3)c3c2CCO3)-c2cc(=O)c(C(=O)O)cn21 [Example 97, (S)-5-isopropyl-12-(1-methyl-1H-pyrazol-4-yl)-9-oxo-2,3,4,9-tetrahydro-5H-furo[3,2-f]pyrido[2,1-a]isoquinoline-8-carboxylic Acid] | > 7.00
COCCCOc1cc2c(cc1-c1c(C)nn(C)c1C)-c1cc(=O)c(C(=O)O)cn1[C@H](C(C)(C)C)C2 [Example 33, (S)-6-(tert-butyl)-9-(3-methoxypropoxy)-2-oxo-10-(1,3,5-trimethyl-1H-pyrazol-4-yl)-6,7-dihydro-2H-pyrido[2,1-a]isoquinoline-3-carboxylic Acid] | > 7.00
COCCCOc1cc2c(cc1-c1ccn(C)n1)-c1cc(=O)c(C(=O)O)cn1[C@H]1[C@@H]2COC1(C)C [Example 124, (3aS,12bR)-11-(3-methoxypropoxy)-3,3-dimethyl-10-(1-methyl-1H-pyrazol-3-yl)-7-oxo-3,3a,7,12b-tetrahydro-1H-furo[3,4-c]pyrido[2,1-a]isoquinoline-6-carboxylic Acid] | > 7.00
CC(C)[C@@H]1Cc2c(cc(-c3ccc(Cl)cc3)c3c2CCO3)-c2cc(=O)c(C(=O)O)cn21 [Example 109, (S)-12-(4-chlorophenyl)-5-isopropyl-9-oxo-2,3,4,9-tetrahydro-5H-furo[3,2-f]pyrido[2,1-a]isoquinoline-8-carboxylic Acid] | < 6.00
CC(C)(C)[C@@H]1Cc2c(cc(-c3ccc(Cl)cc3)c3c2CCO3)-c2cc(=O)c(C(=O)O)cn21 [Example 84, (S)-5-(tert-butyl)-12-(4-chlorophenyl)-9-oxo-2,3,4,9-tetrahydro-5H-furo[3,2-f]pyrido[2,1-a]isoquinoline-8-carboxylic Acid] | < 6.00
CC(C)(C)[C@@H]1Cc2c(cc(-c3ccc(C(F)(F)F)cc3)c3c2CCO3)-c2cc(=O)c(C(=O)O)cn21 [Example 80, (S)-5-(tert-butyl)-9-oxo-12-(4-(trifluoromethyl)phenyl)-2,3,4,9-tetrahydro-5H-furo[3,2-f]pyrido[2,1-a]isoquinoline-8-carboxylic Acid] | < 6.00
CC(C)(C)[C@@H]1Cc2c(cc(-c3cccc(Cl)c3)c3c2CCO3)-c2cc(=O)c(C(=O)O)cn21 [Example 85, (S)-5-(tert-butyl)-12-(3-chlorophenyl)-9-oxo-2,3,4,9-tetrahydro-5H-furo[3,2-f]pyrido[2,1-a]isoquinoline-8-carboxylic Acid] | > 7.00
CC(C)(C)[C@@H]1Cc2c(cc(N3CCOCC3)c3c2CCO3)-c2cc(=O)c(C(=O)O)cn21 [Example 118, (S)-5-(tert-butyl)-12-morpholino-9-oxo-2,3,4,9-tetrahydro-5H-furo[3,2-f]pyrido[2,1-a]isoquinoline-8-carboxylic Acid] | > 7.00
